In publication PMC6272185 (Molecules, 2015):
Values after ≈ are worked out from the molar mass of the structure shown.

Test system: PGE2 production by LPS-stimulated RAW 264.7 macrophages
Assay: Inhibition of PGE2 production by LPS-stimulated macrophages (ELISA)
Type: cell-based, murine
Conditions: Mus musculus, RAW264.7, 24 h, read-out: IC50 PGE2
Experimental: (§1) Murine RAW 264.7 macrophage cell line (American Type Culture Collection, Manassas, VA, USA), was cultured in Dulbecco’s modified Eagle’s medium (DMEM-F12) supplemented with 10% Fetal Bovine Serum (FBS) and gentamicin (50 µg/mL) in 5% CO2 atmosphere at 37 °C. For experiments, the cells were seeded in 96-well plates (1 × 10^5 cells/well) and incubated for 24 h at 37 °C. For macrophage stimulation, the cell cultures were treated with LPS (1 µg/mL) and incubated for additional 24 h in the presence or absence of the chalcone samples (samples 1–41) that were used at concentrations of 100, 20, 4 and 0.8 µg/mL. In some experiments, a nitric oxide (NO) inhibitor, L-NMMA (20 μg/mL), was used as a positive control of NO inhibition, and a non-steroidal anti-inflammatory drug indomethacin, known to inhibit production of prostaglandins, was used as a positive control of PGE2 inhibition.
(§2) The frozen culture supernatants samples were thawed and immediately analyzed using commercially available enzyme-linked immunosorbent assay (ELISA) kits to measure TNF-α, IL-1β (BD Biosciences) and PGE2 (R&D Systems, Minneapolis, MN, USA), according to the manufacturer’s instructions. Standard curves for each mediator were generated using reference cytokine concentrations supplied by the manufacturer. Nitric oxide (NO) generation was assessed by the Griess method to measure nitrites, which are stable breakdown NO products.
Work on `O=C(/C=C/c1ccc(Cl)cc1)c1ccccc1Cl` [Chalcone 33] yielded an IC50 of 75.1 ± 3.5 µM. In the case of `CN(C)c1ccc(/C=C/C(=O)c2ccccc2)cc1` [Chalcone 4], the IC50 is reported as 61.2 ± 0.5 µM. Compound `COc1ccc(C(=O)/C=C/c2ccc(F)cc2)cc1` [Chalcone 25] has an IC50 of 57.5 ± 2.1 µM.

Test system: not listed separately
Assay: Macrophage cytotoxicity, LDH release assay
Type: cell-based, murine
Conditions: mouse, RAW 264.7 macrophages stimulated with LPS; LPS-stimulated RAW 264.7, LDH release; mean ± SD, n = 3
Experimental: Cytotoxic effects of chalcone samples on RAW 264.7 cell viability in cultures stimulated with LPS were determined using the LDH (lactate dehydrogenase) release assay as previously described [58]. Cytoplasmic enzyme LDH release into cell culture supernatants was detected using a commercial LDH kit (Doles, GO, Brazil). Cell death was expressed as percentage of LDH release, which was calculated using the following formula: percentage of LDH release = 100 × (test LDH release − spontaneous release)/(maximum release − spontaneous release). The maximum release was determined following dissolution of cell monolayers using 1% (vol/vol) Triton X-100. The spontaneous release was determined in supernatants from cultures incubated in the presence of LPS and DMSO, used as a solvent for chalcone samples.
Work on `O=C(/C=C/c1ccc(Cl)cc1)c1ccccc1Cl` [Chalcone 33] yielded an IC50 of 351 ± 5 µM. Work on `CN(C)c1ccc(/C=C/C(=O)c2ccccc2)cc1` [Chalcone 4] yielded an IC50 of 348 ± 5.1 µM. Compound `COc1ccc(C(=O)/C=C/c2ccc(F)cc2)cc1` [Chalcone 25] has an IC50 greater than 390 µM.

Test system: M. tuberculosis strain H37Rv in RAW 264.7 macrophages
Assay: Intracellular growth of M. tuberculosis H37Rv in infected macrophages (CFU)
Type: cell-based, Mycobacterium tuberculosis
Conditions: Mycobacterium tuberculosis, H37RV, 96 h, infected RAW 264.7, MOI 1:1, 4 days, Figure 3C
Experimental: (§3) RAW 264.7 macrophages were plated (1 × 10^5 cells/well) in antibiotic-free DMEM-F12 medium supplemented with 10% fetal bovine serum and incubated for 24 h. Prior to infection, mycobacterial suspensions were sonicated for 1 minute to disperse clumps and optical densities were adjusted to 0.1. The macrophage cultures were infected at a MOI of 1:1 (macrophage: bacterium). Phagocytosis was allowed to progress for 3 h. After 3 h, extracellular mycobacteria were removed by washing with PBS 1X and the infected cell monolayers were treated for 4 days with chalcone samples or rifampicin. Macrophage viability was monitored by LDH assay and was over 80% in all experiments. On day 4 after infection, cells were lysed cells with 1% saponin to release intracellular bacteria. Lysate aliquots were diluted 10-fold in PBS, plated in triplicates on 7H10 agar plates and incubated at 37 °C. After 21 days, total CFU were determined.
Compound `O=C(/C=C/c1ccc(Cl)cc1)c1ccccc1Cl` [Chalcone 33] has an MIC50 of 248 ± 3.7 µM (≈ 68.7 µg/mL). `CN(C)c1ccc(/C=C/C(=O)c2ccccc2)cc1` [Chalcone 4] gave an MIC50 of 4.2 ± 0.3 µM (≈ 1.06 µg/mL). Compound `COc1ccc(C(=O)/C=C/c2ccc(F)cc2)cc1` [Chalcone 25] has an MIC50 of 49.1 ± 1.7 µM (≈ 12.6 µg/mL).

Same assay, conditions: infected RAW 264.7, MOI 1:1, 4 days, Figure 3C
With `CN(C)c1ccc(/C=C/C(=O)c2ccccc2)cc1` [Chalcone 4] the “MIC50 intracellular M. tuberculosis H37Rv” value was 4.2 ± 0.3 µM (≈ 1.06 µg/mL).

Test system: RAW 264.7 macrophages infected with M. tuberculosis H37Rv
Assay: Toxicity for infected macrophages, LDH assay
Type: cell-based, murine
Conditions: Mus musculus, RAW264.7, 96 h; infected RAW 264.7, 4 days treatment; Figure 3D
Experimental: Cytotoxic effects of chalcone samples on RAW 264.7 cell viability in cultures stimulated with LPS were determined using the LDH (lactate dehydrogenase) release assay as previously described. Cytoplasmic enzyme LDH release into cell culture supernatants was detected using a commercial LDH kit (Doles, GO, Brazil). Cell death was expressed as percentage of LDH release, which was calculated using the following formula: percentage of LDH release = 100 × (test LDH release − spontaneous release)/(maximum release − spontaneous release). The maximum release was determined following dissolution of cell monolayers using 1% (vol/vol) Triton X-100. The spontaneous release was determined in supernatants from cultures incubated in the presence of LPS and DMSO, used as a solvent for chalcone samples.
as §3
Work on `O=C(/C=C/c1ccc(Cl)cc1)c1ccccc1Cl` [Chalcone 33] yielded an IC50 of 271.7 ± 2.7 µM. For `CN(C)c1ccc(/C=C/C(=O)c2ccccc2)cc1` [Chalcone 4], the IC50 was 374 ± 6.3 µM. `COc1ccc(C(=O)/C=C/c2ccc(F)cc2)cc1` [Chalcone 25] showed an IC50 of 264 ± 4.4 µM.

Test system: TNF-α production by LPS-stimulated RAW 264.7 macrophages
Assay: Inhibition of TNF-α production by LPS-stimulated macrophages (ELISA)
Type: cell-based, murine
Conditions: LPS-stimulated RAW 264.7
For `CN(C)c1ccc(/C=C/C(=O)c2ccccc2)cc1` [Chalcone 4], the “inhibition of TNF-α” value was “strongly inhibit”.

Same assay, conditions: Mus musculus, RAW264.7; LPS (1 µg/mL)-stimulated RAW 264.7, 24 h; mean ± SD, n = 3; read-out: IC50 TNF-α
Work on `O=C(/C=C/c1ccc(Cl)cc1)c1ccccc1Cl` [Chalcone 33] yielded an IC50 of 166 ± 5.2 µM. Work on `CN(C)c1ccc(/C=C/C(=O)c2ccccc2)cc1` [Chalcone 4] yielded an IC50 of 66.9 ± 4.3 µM. For `COc1ccc(C(=O)/C=C/c2ccc(F)cc2)cc1` [Chalcone 25], the IC50 was greater than 390 µM.

Test system: M. tuberculosis M299
Assay: microbe, parasite or virus in culture
Type: cell-based, Mycobacterium tuberculosis
Conditions: Mycobacterium tuberculosis, M299, 120 h
For `CN(C)c1ccc(/C=C/C(=O)c2ccccc2)cc1` [Chalcone 4], the MIC50 was 20.1 ± 1 µM (≈ 5.05 µg/mL) and the MIC90 was 351.5 ± 1.8 µM (≈ 88.3 µg/mL). Compound `COc1ccc(C(=O)/C=C/c2ccc(F)cc2)cc1` [Chalcone 25] has an MIC50 of 18.5 ± 3.6 µM (≈ 4.74 µg/mL) and an MIC90 of 366.9 ± 0.3 µM (≈ 94 µg/mL).

Test system: M. bovis BCG
Assay: microbe, parasite or virus in culture
Type: cell-based, Mycobacterium bovis BCG
Conditions: Mycobacterium tuberculosis variant bovis BCG, BCG, 168 h, read-out: MIC50 M. bovis BCG
With `O=C(/C=C/c1ccc(Cl)cc1)c1ccccc1Cl` [Chalcone 33] the MIC50 was 45.7 ± 5.4 µM (≈ 12.7 µg/mL). For `CN(C)c1ccc(/C=C/C(=O)c2ccccc2)cc1` [Chalcone 4], the MIC50 was 14.3 ± 5.8 µM (≈ 3.59 µg/mL). Work on `COc1ccc(C(=O)/C=C/c2ccc(F)cc2)cc1` [Chalcone 25] yielded an MIC50 of 15.8 ± 5.2 µM (≈ 4.05 µg/mL).

Same assay, conditions: Mycobacterium tuberculosis variant bovis BCG, BCG, 168 h, read-out: MIC90 M. bovis BCG
Work on `O=C(/C=C/c1ccc(Cl)cc1)c1ccccc1Cl` [Chalcone 33] yielded an MIC90 greater than 361 µM. In the case of `CN(C)c1ccc(/C=C/C(=O)c2ccccc2)cc1` [Chalcone 4], the MIC90 is reported as 137 ± 7.9 µM (≈ 34.5 µg/mL). For `COc1ccc(C(=O)/C=C/c2ccc(F)cc2)cc1` [Chalcone 25], the MIC90 was 228 ± 5.8 µM (≈ 58.5 µg/mL).

Test system: IL-1β production by LPS-stimulated RAW 264.7 macrophages
Assay: Inhibition of IL-1β production by LPS-stimulated macrophages (ELISA)
Type: cell-based, murine
Conditions: LPS-stimulated RAW 264.7
Experimental: as §1, §2
With `CN(C)c1ccc(/C=C/C(=O)c2ccccc2)cc1` [Chalcone 4] the “inhibition of IL-1β” value was “potent inhibitors”.

Same assay, conditions: Mus musculus, RAW264.7, 24 h, read-out: IC50 IL-1β
Work on `O=C(/C=C/c1ccc(Cl)cc1)c1ccccc1Cl` [Chalcone 33] yielded an IC50 of 287 ± 3.6 µM. `CN(C)c1ccc(/C=C/C(=O)c2ccccc2)cc1` [Chalcone 4] gave an IC50 of 116 ± 5.5 µM. Work on `COc1ccc(C(=O)/C=C/c2ccc(F)cc2)cc1` [Chalcone 25] yielded an IC50 greater than 390 µM.

Test system: NO production by LPS-stimulated RAW 264.7 macrophages
Assay: Inhibition of NO production by LPS-stimulated macrophages (Griess)
Type: cell-based, murine
Conditions: LPS (1 µg/mL)-stimulated RAW 264.7, 24 h; mean ± SD, n = 3; read-out: IC50 NO
`CN(C)c1ccc(/C=C/C(=O)c2ccccc2)cc1` [Chalcone 4] showed an IC50 of 12 ± 2.2 µM.

Same assay, conditions: Mus musculus, RAW264.7, 24 h, LPS (1 µg/mL)-stimulated RAW 264.7, 24 h; mean ± SD, n = 3; read-out: IC50 NO
`COc1ccc(C(=O)/C=C/c2ccc(F)cc2)cc1` [Chalcone 25] gave an IC50 of 41.2 ± 4.6 µM.

Same assay, conditions: Mus musculus, RAW264.7, 24 h, read-out: IC50 NO, LPS (1 µg/mL)-stimulated RAW 264.7, 24 h; mean ± SD, n = 3
`CN(C)c1ccc(/C=C/C(=O)c2ccccc2)cc1` [Chalcone 4] showed an IC50 of less than 21 µM.

Test system: iNOS expression in RAW 264.7 macrophages
Assay: iNOS expression by western blot in LPS-stimulated macrophages
Type: cell-based, murine
Conditions: 20 µg/mL, LPS 1 µg/mL, 24 h
Experimental: RAW 264.7 macrophages were plated in Petri dishes (2 × 10^7 cells·mL^−1) and incubated for 24 h at 37 °C in 5% CO2 atmosphere. […] The resulted cellular monolayers were washed with PBS 1×, scraped and resuspended in PBS 1×, transferred and centrifuged to obtain cell pellets. The cells were lysed in buffer (10% SDS, 20% glycerol, 5% 2-mercaptoethanol, 2% bromophenol blue and 1 M Tris HCl, pH 6.8, containing protease inhibitors). Protein concentrations were estimated by Bradford method. For western blot analysis, cellular extract samples (60 µg) were submitted to 10% SDS–polyacrylamide gel electrophoresis under […] conditions and transferred to nitrocellulose membranes (Amersham Pharmacia Biotech, Uppsala, Sweden). After blocking with PBS-T (0.5% Tween-20) containing 2.5% (w/v) bovine serum albumin, the membranes were incubated with antibodies against iNOS (1:1000) and COX-2 (1:500) for 1 h at room temperature. After incubation period, the membranes were washed followed by treatment with horseradish peroxidase-conjugated secondary antibody. The resulting membranes were developed using diaminobenzidine/H2O2 as a substrate for peroxidase. In all electrophoresis experiments, a protein standard ladder (Full Range Rainbow-GE Healthcare, Piscataway, NJ, USA) was used to estimate proteins molecular size. Protein bands densitometric analysis was performed using ImageJ software for Windows (NIH, Bethesda, MD, USA). The value for stimulated condition (LPS- treated cells) was set as 1 and other conditions were recalculated correspondingly to allow ratio comparisons.
With `O=C(/C=C/c1ccc(Cl)cc1)c1ccccc1Cl` [Chalcone 33] the “inhibition of iNOS expression” value was “almost completely inhibit”. For `CN(C)c1ccc(/C=C/C(=O)c2ccccc2)cc1` [Chalcone 4], the “inhibition of iNOS expression” value was “almost completely inhibit”.

Test system: M. tuberculosis H37Rv
Assay: microbe, parasite or virus in culture
Type: cell-based, Mycobacterium tuberculosis
Conditions: Mycobacterium tuberculosis, H37RV, 120 h
With `O=C(/C=C/c1ccc(Cl)cc1)c1ccccc1Cl` [Chalcone 33] the MIC90 was 356 ± 4.9 µM (≈ 98.6 µg/mL). `CN(C)c1ccc(/C=C/C(=O)c2ccccc2)cc1` [Chalcone 4] gave an MIC90 of 320 ± 4.8 µM (≈ 80.5 µg/mL). Compound `COc1ccc(C(=O)/C=C/c2ccc(F)cc2)cc1` [Chalcone 25] has an MIC90 of 366.1 ± 3.6 µM (≈ 93.8 µg/mL).

Same assay, conditions: Mycobacterium tuberculosis, H37RV, 120 h; read-out: MIC50 M. tuberculosis H37Rv
`O=C(/C=C/c1ccc(Cl)cc1)c1ccccc1Cl` [Chalcone 33] showed an MIC50 of 36.9 ± 4.5 µM (≈ 10.2 µg/mL). In the case of `CN(C)c1ccc(/C=C/C(=O)c2ccccc2)cc1` [Chalcone 4], the MIC50 is reported as 19.7 ± 1.9 µM (≈ 4.95 µg/mL). Compound `COc1ccc(C(=O)/C=C/c2ccc(F)cc2)cc1` [Chalcone 25] has an MIC50 of 25.1 ± 5.2 µM (≈ 6.43 µg/mL).

Same assay, conditions: Mycobacterium tuberculosis; Table 5; same values as M. tuberculosis H37Rv in Table 3; read-out: MIC50
Compound `O=C(/C=C/c1ccc(Cl)cc1)c1ccccc1Cl` [Chalcone 33] has an MIC50 of 36.9 ± 4.5 µM (≈ 10.2 µg/mL). `CN(C)c1ccc(/C=C/C(=O)c2ccccc2)cc1` [Chalcone 4] gave an MIC50 of 19.7 ± 1.9 µM (≈ 4.95 µg/mL). Compound `COc1ccc(C(=O)/C=C/c2ccc(F)cc2)cc1` [Chalcone 25] has an MIC50 of 25.1 ± 5.2 µM (≈ 6.43 µg/mL).
